Experimental data taken from patent US10626148B2, “Glycopeptides conjugates and uses thereof” (priority 2015, dated 2020).
Where two headings read alike, the source gives them in different places.

Columns and labels:
[1] = test system: Vancomycin-resistant E. faecium (VanA, ATCC 51559); experiment: MIC, micro-dilution broth, VREm; format: cell-based
Experimental: (§1) Test compounds were assayed in a micro-dilution broth format. Stock solutions were made by serially diluting the compounds using autoclaved millipore water or broth media. The antibacterial activity of the compounds was determined against gram positive bactreia like methicillin-resistant S. aureus (MRSA), vancomycin-intermediate-resistant S. aureus (VISA), vancomycin-sensitive E. faecium (VSE), vancomycin-resistant E. faecalis and vancomycin-resistant E. faecium (VRE). Antibacterial activity of dipicolyl-vancomycin conjugate conjugate (4) in combination with meropemem was determined against gram-negative bacteria such as K. pneumoniae ATCC BAA2146, clinical isolates K. pneumoniae R3949, K. pneumoniae R3934, E. coli R3336 and A. baumanii R676. Bacteria, to be tested, were grown for about 10 h in the suitable media, MRSA, VISA and gram negative bacteria were grown in Yeast-dextrose broth (about 1 g of beef extract, about 2 g of yeast extract, about 5 g of peptone and about 5 g of NaCl in about 1000 mL of sterile distilled water (pH-7)). For solid media, about 5% agar was used along with above mentioned composition. VSE and VRE were cultured in Brain Heart Infusion broth (Himedia). The bacterial samples were freeze dried and stored at −80° C. About 5 μL of these stocks were added to about 3 mL of the nutrient broth or Brain Heart Infusion broth and the culture was grown for about 6 h at about 37° C. prior to the experiments. This 6 h grown culture gives about 10^9 cfu/mL and this was determined by spread plating method. The 6 h grown culture was diluted to give effective cell concentration of about 10^5 cfu/mL which was then used for determining MIC. Compounds were serially diluted, in sterile water (2-fold dilution is employed) in a way that the working concentration was about 10 μM for MRSA, and VSE while for VRE, VISA and gram negative bacteria; it was about 100 μM. About 50 μL of these serial dilutions were added to the wells of 96 well plate followed by the addition of about 150 μL of bacterial solution. The plates were then incubated at about 37° C., 150 rpm in the incubator and O.D at 620 nm was recorded at an interval of about 24 h using TECAN (Infinite series, M200 pro) Plate Reader. Each concentration had triplicate values and the whole experiment was done at least twice and the MIC value was determined by taking the average of triplicate O.D. values for each concentration and plotting it against concentration. The data was then subjected to sigmoidal fitting.

[2] = test system: Methicillin-resistant S. aureus (ATCC 33591); experiment: MIC, micro-dilution broth, MRSA; format: cell-based
Experimental: as §1

[3] = test system: Vancomycin intermediate resistant S. aureus; experiment: MIC, micro-dilution broth, VISA; format: cell-based
Experimental: as §1

NDM-1 enzyme = molecular target: T1, NDM-1 enzyme (Klebsiella pneumoniae, UniProt C7C422); experiment: NDM-1 enzyme inhibition, nitrocefin substrate; format: biochemical; settings: nitrocefin as substrate
T1 construct: made in house; host or cells: E. coli BL21 (DE3)
Experimental: The NDM-1 was produced by E. coli BL21 (DE3) carrying pET30a-NDM-1 in LB medium. Initially, the purified NDM-1 enzyme (5 nM, HEPES buffer, pH-7.4) was supplemented with 20 μM ZnSO4 for 30 min. Next, the enzyme was pre-incubated with the inhibitor (compound 4) for 20 min prior to the initiation of the assay by the addition of the substrate (Nitrocefin, 30 μM). Assays were read in 96-well microplate format at 490 nm (absorbance) using TECAN plate reader (Infinite Pro.) at 37° C. IC50s were deduced from a plot of percent loss of activity versus inhibitor concentration.

[4] = test system: Vancomycin-resistant E. faecalis (VanA, ATCC 51575); experiment: MIC, micro-dilution broth, VREs; format: cell-based
Experimental: as §1

[5] = test system: Vancomycin-sensitive E. faecium (ATCC 19634); experiment: MIC, micro-dilution broth, VSEm; format: cell-based
Experimental: as §1

MRSA = experiment: Resistance development study, serial passages; format: cell-based, S. aureus; settings: passaged at MIC/2
Experimental: MIC values of the compound 4 and vancomycin were determined against MRSA as described above. For the next day MIC experiment, the bacterial dilution was made by using the bacteria from sub-MIC concentration of the compounds (at MIC/2). Then, the concentration of this bacteria was adjusted to ˜10^5 CFU/mL based on OD600 and subjected to next MIC assay. After a 24 h incubation period, again bacterial dilution was prepared by using the bacterial suspension from sub-MIC concentration of the compound (at MIC/2) and assayed for another MIC experiment. The process was repeated for 25 passages, and the fold increase in MIC was determined. […] Thus bacteria were unable in acquiring resistance to this compound and this emphasizes the longevity of such compounds in clinics.

VREs ATCC 51575 = format: in vivo, E. faecalis; settings: CD-1 mice, 12 mg/kg i.p. once daily, three doses
Experimental: Female CD-1 mice 6 to 8 weeks of age and weighing 20 to 25 g were used in this study. On day −7, all mice were injected intravenously (i.v.) with 0.2 mL of 0.2% λ-carrageenan to increase their susceptibility to bacterial renal infection. λ-Carrageenan increases mice susceptibility to renal infection following i.v. injection, possibly by forming a lattice structure in renal tissue and forming a support structure for bacterial attachment and growth. Bacterial strains that fail to cause renal infection in normal mice produce significant renal infections in λ-carrageenan-treated mice. On day 0, all mice were injected i.v. with 0.2 mL of the bacterial culture (VREs ATCC 51575, 10^8 CFU/mouse) through the tail vein. Four hours after the bacterial inoculation, mice were treated intraperitoneally (i.p.) with vancomycin, compound 4 and linezolid at 12 mg/kg of body weight or 0.2 mL of saline (0.9% NaCl) control (n=5). All the test compounds or saline were administered once daily for an additional two consecutive days for a total of three doses. All mice were sacrificed on day 3. Both kidneys from each mouse were removed aseptically and homogenized in 10 mL of saline. The dilutions of the homogenate were plated onto sheep blood agar plates, which were incubated overnight at about 37° C. The bacterial titer was expressed as log10 CFU/g of kidney weight.

[6] = test system: meropenem-resistant NDM-1 bacteria; experiment: Combination with meropenem against NDM-1 gram negative bacteria; format: cell-based; settings: in combination with meropenem
Experimental: (§2) Test compounds were assayed in a micro-dilution broth format. Stock solutions were made by serially diluting the compounds using autoclaved millipore water or broth media. The antibacterial activity of the compounds was determined against gram positive bactreia like methicillin-resistant S. aureus (MRSA), vancomycin-intermediate-resistant S. aureus (VISA), vancomycin-sensitive E. faecium (VSE), vancomycin-resistant E. faecalis and vancomycin-resistant E. faecium (VRE). Antibacterial activity of dipicolyl-vancomycin conjugate conjugate (4) in combination with meropemem was determined against gram-negative bacteria such as K. pneumoniae ATCC BAA2146, clinical isolates K. pneumoniae R3949, K. pneumoniae R3934, E. coli R3336 and A. baumanii R676. Bacteria, to be tested, were grown for about 10 h in the suitable media, MRSA, VISA and gram negative bacteria were grown in Yeast-dextrose broth (about 1 g of beef extract, about 2 g of yeast extract, about 5 g of peptone and about 5 g of NaCl in about 1000 mL of sterile distilled water (pH-7)). […] This 6 h grown culture gives about 10^9 cfu/mL and this was determined by spread plating method. […] The plates were then incubated at about 37° C., 150 rpm in the incubator and O.D at 620 nm was recorded at an interval of about 24 h using TECAN (Infinite series, M200 pro) Plate Reader. Each concentration had triplicate values and the whole experiment was done at least twice and the MIC value was determined by taking the average of triplicate O.D. values for each concentration and plotting it against concentration. […]
(§3) Then, the antibacterial activities of Dipicolyl-vancomycin conjugate (4) is checked in combination with meropenem against New-Delhi β-lactamase producing gram negative bacteria such as K. pneumoniae BAA2146, clinical isolates K. pneumoniae R3949, K. pneumoniae R3934, E. coli R3336 and A. baumanii R676. […] Further we have also evaluated the antibacterial activity of dipicolyl-vancomycin conjugate (4) in presence of zinc sulphate, wherein it forms dipicolyl-vancomycin-zinc complex (5).

[7] = test system: NDM-1 expressing Klebsiella pneumoniae ATCC BAA2146; experiment: microbe, parasite or virus in culture; format: cell-based; settings: for MIC: Klebsiella pneumoniae
Experimental: as §1, §3

[8] = test system: NDM-1 expressing Klebsiella pneumoniae R3949; experiment: microbe, parasite or virus in culture; format: cell-based; settings: for MIC: Klebsiella pneumoniae
Experimental: as §1, §3

[9] = test system: NDM-1 expressing Escherichia coli R3336; experiment: microbe, parasite or virus in culture; format: cell-based; settings: for MIC: Escherichia coli
Experimental: as §1, §3

[10] = test system: NDM-1 expressing Klebsiella pneumoniae R3934; experiment: microbe, parasite or virus in culture; format: cell-based; settings: for MIC: Klebsiella pneumoniae
Experimental: as §1, §3

[11] = test system: Staphylococci (MRSA and VISA) and Enterococci (VREm and VREs); experiment: Antibacterial activity, gram positive panel; format: cell-based; settings: VSEm
Experimental: as §2, with “R676.” for “R676. Bacteria, to be tested, were grown for about 10 h in the suitable media, MRSA, VISA and gram negative bacteria were grown in Yeast-dextrose broth (about 1 g of beef extract, about 2 g of yeast extract, about 5 g of peptone and about 5 g of NaCl in about 1000 mL of sterile distilled water (pH-7)).”

[12] = test system: meropenem-resistant NDM-1 K. pneumoniae R3934; experiment: Sepsis infection model in mice; format: in vivo; settings: CD-1 mice, i.p., 10 mg/kg alone, 1 h and 24 h post-infection
Experimental: Sepsis infection model: About six-week-old, female CD-1 mice (weight, ˜19-24 g) were used for the experiments. Mice were infected intraperitoneally (i.p.) with a dose of ˜10^6 CFU/mouse of meropenem-resistant NDM-1 K. pneumoniae R3934. Then, mice were treated twice at 1 h and 24 h post-infection with a specified i.p. dose of either saline, meropenem (10 mg/kg), compound 4 (10 mg/kg), or a combination of compound 4 (10 mg/kg) and meropenem (10 mg/kg). Here, colistin (5 mg/kg) was used as a positive control. Mice were euthanized after 48 h post-infection and then liver, spleen, kidney and lungs were collected to find out the bacterial density in these organs. Organs were placed into 10 ml sterile saline on ice, and then homogenized. The dilutions of the homogenate were plated onto agar plates, which were incubated for 24 h at 37° C. The bacterial titer was expressed as log10 CFU/g of organ weight.

[13] = read-out: MIC of Meropenem in absence of compound 4
[14] = read-out: MIC of Meropenem in absence of compound 5

T1 sequence (C7C422 29-270, looked up, species assumed): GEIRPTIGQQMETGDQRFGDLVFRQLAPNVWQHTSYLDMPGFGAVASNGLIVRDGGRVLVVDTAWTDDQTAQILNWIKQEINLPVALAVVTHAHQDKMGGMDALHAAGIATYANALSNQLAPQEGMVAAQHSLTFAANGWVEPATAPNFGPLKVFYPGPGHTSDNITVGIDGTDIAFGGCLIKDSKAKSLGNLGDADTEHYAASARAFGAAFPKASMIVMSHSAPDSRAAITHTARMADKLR

CN[C@H](CC(C)C)C(=O)N[C@H]1C(=O)N[C@@H](CC(N)=O)C(=O)N[C@H]2C(=O)N[C@H]3C(=O)N[C@H](C(=O)N[C@H](C(=O)O)c4cc(O)cc(O)c4-c4cc3ccc4O)[C@H](O)c3ccc(c(Cl)c3)Oc3cc2cc(c3O[C@H]2OC(CO)[C@H](O)C(O)C2O[C@H]2C[C@@](C)(N)[C@@H](O)C(C)O2)Oc2ccc(cc2Cl)[C@H]1O (stereo partly shown) [Vancomycin, reference compound]
MIC ([1]; Enterococcus faecium, ATCC51559): 750 µM | MIC ([2]; Staphylococcus aureus): 0.63 µM | MIC ([3]; Staphylococcus aureus): 13 µM | effect on the activity of NDM-1 (NDM-1 enzyme): no effect | MIC ([4]; Enterococcus faecalis, ATCC51575): 250 µM | MIC ([5]; Enterococcus faecium, ATCC19634): 0.6 µM | fold increase in MIC after 25 serial passages (MRSA): ~16 fold | passages after which the MIC value started increasing (MRSA): 7 passages

CC(=O)NC[C@H]1CN(c2ccc(N3CCOCC3)c(F)c2)C(=O)O1 [Linezolid, linezolid, reference compound]
reduction of bacterial titer from infected kidneys in comparison to vancomycin (VREs ATCC 51575): reduced bacterial titer from the infected kidneys more effectively | CFU reduction compared to vehicle treated control (saline) (VREs ATCC 51575; kidneys): ~4 log10 CFU

Dipicolyl-Vancomycin-Zinc Complex [Compound 5]
MIC ([1]; VREm): 0.6 µM | fold more active than vancomycin ([1]; VREm (VRE), ratio of MIC values): about 1250 fold | resensitization of meropenem-resistant NDM-1 bacteria to meropenem (synergistic activity) [6]: did not restore the activity of meropenem | MIC ([2]; MRSA): 0.3 µM | MIC [3]: 0.3 µM | MIC ([4]; VREs): 1.5 µM | MIC ([5]; VSEm): 0.31 µM | MIC of Meropenem in presence of compound 5 at 12 μM ([7]; Klebsiella pneumoniae ATCC BAA2146): >100 µg/mL | MIC of Meropenem in presence of compound 5 at 12 μM ([8]; Klebsiella pneumoniae R3949): >100 µg/mL | MIC of Meropenem in presence of compound 5 at 12 μM ([9]; Escherichia coli R3336): >100 µg/mL | MIC of Meropenem in presence of compound 5 at 12 μM ([10]; Klebsiella pneumoniae R3934): >100 µg/mL

NCCCCCCN(Cc1ccccn1)Cc1ccccn1 [Compound 3, dipicolyl-1,6-hexadiamine]
MIC ([1]; VREm): >100 µM | resensitization of meropenem-resistant NDM-1 bacteria to meropenem (synergistic activity) [6]: did not show any appreciable synergistic activity | MIC ([2]; MRSA): >100 µM | MIC [3]: >100 µM | antibacterial activity against any of the bacteria tested [11]: did not show any activity | MIC ([4]; VREs): >100 µM | MIC ([5]; VSEm): >100 µM

C[C@@H](O)[C@H]1C(=O)N2C(C(=O)O)=C(S[C@@H]3CN[C@H](C(=O)N(C)C)C3)[C@H](C)[C@H]12 [Meropenem, meropenem, reference compound]
in-vivo antibacterial activity, bacterial titer in organs [12]: did not show any activity | MIC ([7]; ATCCBAA2146, read-out: MIC of Meropenem in absence of compound 4): > 100 µg/mL | MIC ([7]; ATCCBAA2146, read-out: MIC of Meropenem in absence of compound 5): > 100 µg/mL | MIC [8, 13]: > 100 µg/mL | MIC [8, 14]: > 100 µg/mL | MIC [9, 13]: > 100 µg/mL | MIC [9, 14]: > 100 µg/mL | MIC [10, 13]: > 100 µg/mL | MIC [10, 14]: > 100 µg/mL
